Data set [1] has as its system 786-0. In words: NCI60 screen cytotoxicity. The data set is classed as cell-based. To be noted: Homo sapiens, Renal cancer, read-out: Compound B1 EC50.
Data set [2] deals with HCT-116. Nature of the data set: NCI60 screen cytotoxicity. The class given is cell-based. To be noted: Homo sapiens, Colon cancer, read-out: Compound B1 EC50.
Data set [3] has as its system MCF-7. In words: NCI60 screen cytotoxicity. To be noted: Homo sapiens, MCF7, Breast cancer, read-out: Compound B1 EC50. The class given is cell-based.
Data set [4] has as its system SK-OV-3. Nature of the data set: NCI60 screen cytotoxicity. The class given is cell-based. As to conditions: Homo sapiens, Ovarian cancer, read-out: Compound B1 EC50.
Data set [5] relates to MDA-MB-468. Nature of the data set: NCI60 screen cytotoxicity. The data set is classed as cell-based. As to conditions: Homo sapiens, Breast cancer, read-out: Compound B1 EC50.
For data set [6], the system named is A-549. Nature of the data set: NCI60 screen cytotoxicity. The class given is cell-based. To be noted: Homo sapiens, A549, Lung cancer, read-out: Compound B1 EC50.
The subject of data set [7] is UACC-62. Nature of the data set: NCI60 screen cytotoxicity. The data set is classed as cell-based. As to conditions: Homo sapiens, Melanoma, read-out: Compound B1 EC50.
Data set [8] relates to MALME-3M. In words: NCI60 screen cytotoxicity. The data set is classed as cell-based. To be noted: Homo sapiens, Melanoma, read-out: Compound B1 EC50.
Data set [9] concerns OVCAR-5. Nature of the data set: NCI60 screen cytotoxicity. As to conditions: Homo sapiens, Ovarian cancer, read-out: Compound B1 EC50. The data set is classed as cell-based.
Data set [10] has as its system U251. In words: NCI60 screen cytotoxicity. The class given is cell-based. As to conditions: Homo sapiens, U-251, CNS, read-out: Compound B1 EC50.
The test system of data set [11] is OVCAR-3. In words: NCI60 screen cytotoxicity. The data set is classed as cell-based. As to conditions: Homo sapiens, Ovarian cancer, read-out: Compound B1 EC50.
In data set [12] the test system is HT-29. Nature of the data set: NCI60 screen cytotoxicity. The class given is cell-based. As to conditions: Homo sapiens, Colon cancer, read-out: Compound B1 EC50.
Data set [13] concerns SNB-75. In words: NCI60 screen cytotoxicity. The class given is cell-based. To be noted: Homo sapiens, CNS, read-out: Compound B1 EC50.
The test system of data set [14] is UPR branches (PERK, ATF6 and IRE1alpha). Nature of the data set: UPR activation in MM1.S cells (immunoblot, RT-PCR). To be noted: 200 nM. The data set is classed as cell-based. Here is the method: MM1.S cells were treated with 200 nM of Compound B1 for the indicated time points. Following the stated incubation periods the cells were harvested, lysed and resolved on SDS-PAGE gel. Proteins were transferred to PVDF membrane and immunoblotted with the indicated antibodies: FIG. 7A: anti phospho JNK, FIG. 7B: anti JNK, FIG. 7C: anti ATF6. FIG. 7D: anti phospho eIF2alpha, FIG. 7E: anti eIF2alpha, FIG. 7F: anti ATF4. XBP1 splicing was performed on cDNA (FIG. 7G), RNA was extracted cDNA was generated by RT-PCR and XPB1 transcript was amplified by PCR with gene specific primers. Splicing was detected by differential migration of XBP1 transcript on agarose gel. Transcriptional changes of CHOP (FIG. 7K) and ATF4 (FIG. 7J) were estimated by quantitative PCR with gene specific primers. Relative gene expression levels were normalized to GAPDH. Cleaved form of ATF6 and spliced XBP1 is indicated with arrow.
Protein analysis by Western blot. At the end of treatment period, the cells were lysed with M-PER mammalian protein extraction reagent (ThermoFisher Scientific) supplemented with protease inhibitors. Equal protein amounts were resolved on pre-cast SDS-PAGE (ThermoFisher Scientific) and transferred to a PVDF membrane. The membrane was immunoblotted with antibodies as indicated. The following antibodies were used: Ub MAb (SC-8017, Santa-Cruz), ATF4, ATF6, phospho JNK, JNK (Cell signaling); eIF2alpha, phospho eIF2alpha (Novus).
RT-PCR: MM cells were treated with compounds as indicated. Total RNA was extracted using RNAeasy kit (QIAGEN) and cDNA was synthesized using reverse transcriptase (Quantaces biosciences). mRNA levels of ATF4 and CHOP were determined by quantitative PCR using a StepOnePlus™ Real Time PCR system (Life Technologies) with gene specific assays (Thermo Scientific). XBP splicing were addressed by differential migration of XBP-1 gene transcript full size versus spliced form on 2% Agarose gel.

The test system of data set [15] is TK-10. Nature of the data set: NCI60 screen cytotoxicity. The data set is classed as cell-based. To be noted: Homo sapiens, Renal cancer, read-out: Compound B1 EC50.
Data set [16] concerns NCI-H23. In words: NCI60 screen cytotoxicity. The class given is cell-based. To be noted: Homo sapiens, Lung cancer, read-out: Compound B1 EC50.
Data set [17] deals with UO-31. Nature of the data set: NCI60 screen cytotoxicity. The data set is classed as cell-based. To be noted: Homo sapiens, Renal cancer, read-out: Compound B1 EC50.
The subject of data set [18] is BT-549. In words: NCI60 screen cytotoxicity. The class given is cell-based. As to conditions: Homo sapiens, Breast cancer, read-out: Compound B1 EC50.
Data set [19] has as its system OVCAR-4. Nature of the data set: NCI60 screen cytotoxicity. The data set is classed as cell-based. As to conditions: Homo sapiens, Ovarian cancer, read-out: Compound B1 EC50.
In data set [20] the test system is K-562. Nature of the data set: NCI60 screen cytotoxicity. As to conditions: Homo sapiens, K562, Leukemia, read-out: Compound B1 EC50. The class given is cell-based.
Data set [21] concerns HOP-62. In words: NCI60 screen cytotoxicity. The class given is cell-based. To be noted: Homo sapiens, Lung cancer, read-out: Compound B1 EC50.
Data set [22] concerns DU-145. Nature of the data set: NCI60 screen cytotoxicity. The data set is classed as cell-based. As to conditions: Homo sapiens, Prostate cancer, read-out: Compound B1 EC50.
In data set [23] the test system is HCT-116 xenograft. Nature of the data set: HCT-116 colorectal flank xenograft in nude mice. The class given is in vivo. As to conditions: 8 mg/kg IV, TIW for 21 days. From the text: FIG. 6A-6D show the evaluated in-vivo efficacy of Compound AA in a colorectal mouse flank xenograft models (HCT116, SW620). […] HCT-116 or SW620 cells (5×10^6 cells/mouse) were implanted in the rear flank of mail mice (6 weeks of age at the time of tumor implantation). On Day 20-23, mice were randomized for equivalent distribution of tumor volumes to treatment groups (n=5/group) and treated IV with vehicle, Compound AA (FIG. 6A, FIG. 6B) TIW for 21 days. Data are presented as mean tumor volume±SD. Body weight % changes in treated animals observed at end point (FIG. 6C, FIG. 6D). Animal xenograft models. MM1.S, HCT-116, SW620 cell lines were purchased from ATCC and used for xenograft model. The cells were cultured in RPMI medium (Sigma-Aldrich) supplemented with 10% fetal bovine serum (FBS) and divided for up to 5 passages. Shortly prior to injection, cell suspension was mixed with Matrigel at 1:[…]) and injected subcutaneously to the rear flank area of male nude athymic 6 weeks old mice to obtain administration of 5×10^6 cells/animal. On day 20-23, when tumor volume reached 100-150 mm^3, mice were randomized for equivalent distribution of tumor volumes to treatment groups (n=5/group) and treated via intravenous injection.

A value given as a limit tells only on which side of the number the result lay.

A word on the EC50: it is the concentration that produces a half-maximal response. `CN(C)CC(=O)NCC(=O)N1C/C(=C\c2ccc(C#N)cc2)C(=O)/C(=C/c2ccc(C#N)cc2)C1` [Compound B1]: the EC50 was 300 to 1000 nM in [1]; below 300 nM in data set [2]; 300 to 1000 nM in data set [3]; below 300 nM in [4]; below 300 nM in data set [5]; 300 to 1000 nM in data set [6]. Moreover, the EC50 was 300 to 1000 nM in [7]; below 300 nM in data set [8]; below 300 nM in [9]; below 300 nM in data set [10]; below 300 nM in [11]; 300 to 1000 nM in data set [12]. Besides, the EC50 in data set [13] was 300 to 1000 nM; in [15] it was 300 to 1000 nM; in data set [16] it was below 300 nM; in data set [17], 300 to 1000 nM; in data set [18], below 300 nM; in data set [19], 300 to 1000 nM. The EC50 in data set [20], in [21] and in [22] was below 300 nM in each case. For the same compound, the “eIF2alpha phosphorylation (PERK activation)” value in data set [14] (after 1 hr of treatment) was “increases eI2Falpha phosphorylation”. For the same compound, the XBP splicing result in data set [14] (differential migration of XBP gene transcript) was “Spliced XBP was detected”. The “ATF6 full size form” value in data set [14] (immunoblot) is reported as “short term upregulation of ATF6 full size form followed by a rapid decline”. Also, the “phosphorylated JNK” value in [14] (immunoblot, no change in total protein levels) is on record as “significant upregulation in phosphorylated JNK”. In addition, the “ATF4 and CHOP transcription (quantitative PCR)” value in data set [14] (peaking at 3 hr post treatment) was “transcriptional increase of both ATF4 and CHOP”.
With `CN(C)CCCS(=O)(=O)N1C/C(=C\c2ccc(C#N)cc2)C(=O)/C(=C/c2ccc(C#N)cc2)C1` [Compound AA], in [23], the Animal body weight result is “not considerably affected” and the “tumor growth compared to vehicle control” value was “significantly inhibited tumor growth”.

Values taken from patent US20200399262A1, “COMPOUNDS FOR INHIBITING PROTEIN DEGRADATION AND METHODS OF USE THEREOF IN THE TREATMENT OF CANCER” (PI Therapeutics Ltd, priority 2018, published 2020).
